Experimental data reported in patent US9464106B2, “Oligonucleotides useful for detecting and analyzing nucleic acids of interest” (Exiqon A/S, priority 2002, dated 2016).
Marks after values point to notes of the source that are not given here. l = locked nucleic acid (LNA); [5mC] = 5-methylcytosine; d = 2'-deoxy (DNA)

Assays:
[1] = test system: complementary single stranded DNA (3′-ctgNatcc); assay: Melting temperatures of DNA and LNA 8-mers containing inosine, 2,6-diaminopurine or 2-aminopurine against complementary DNA; format: binding; settings: for Tm of the duplex with 3′-ctgaatcc / Tm of the duplex with 3′-ctgcatcc / Tm of the duplex with 3′-ctggatcc / Tm of the duplex with 3′-ctgtatcc: duplex 2.5 μM, 0.1M NaCl, 10 mM Na-phosphate (pH 7.0), 1 mM EDTA
[2] = test system: yeast HSP78 (YDR258C) sequence; assay: Duplex melting temperatures of HSP78 25-mer capture probes (UV spectrophotometer); settings: 25-mer capture probe duplex with complementary target; design PM = perfectly matched, MM = single mismatch; DNA, LNA_T (T) or LNA_TC (TC) substituted

Substance	Tm of the duplex with 3′-ctgaatcc [1]	Tm of the duplex with 3′-ctgcatcc [1] [°C]	Tm of the duplex with 3′-ctggatcc [1]	Tm of the duplex with 3′-ctgtatcc [1] [°C]	Average duplex melting temp. [2] [°C]	also measured
5′-GACATAGG [Entry 8]	38.2 °C	40.6	43.4 °C	61.6		
5′-GACDTAGG [Entry 11]	42.2 °C	52.4	41.4 °C	67.8		
5′-GACGTAGG [Entry 10]	32^b ° C.	70.9	41^b ° C.	55.0		
5′-GACITAGG [Entry 13]	48.2 °C	59.9	43.0 °C	53.1		
5′-GACTTAGG [Entry 9]	60.7 °C	23.5	36.4 °C	28.0		
5′-GDCDTDGG [Entry 12]	55.9 °C	63.8	54.7 °C	78.3		
5′-gacatagg [Entry 1, reference compound]	<10 °C	<10	<10 °C	23.8		
5′-gacdtagg [Entry 4, reference compound]	<10 °C	<10	<10 °C	23.3		destabilization of the duplex on analogous replacement in a DNA octamer ([1]; entries 1 and 4): 0.5 °C
5′-gacgtagg [Entry 3, reference compound]	<10 °C	25.0	<10 °C	<10		
5′-gacitagg [Entry 6, reference compound]	<10 °C	20.9	<10 °C	<10		
5′-gacttagg [Entry 2, reference compound]	22.6 °C	<10	<10 °C	<10		
12810 (DNA ATAGCAGCAATGGCCTCGTCTTGGC; sugars from the 5' end dlddldddddlddldldddldlddd, [5mC] at 5, 14, 20, backbone not given here; further chemistry not fully specified) [compound 12810]					83	
12811 (DNA GCAATGGCCTCGTCTTGGCCAACGA; sugars from the 5' end d10 l1 d1 l2 d11, [5mC] at 11, 14, backbone not given here; further chemistry not fully specified) [compound 12811]					79.3	
12812 (DNA GATGAACTCAGGTGGATAGGATCTT; sugars from the 5' end ddldddllldddldddlddddllld, all C 5-methyl, backbone not given here; further chemistry not fully specified) [compound 12812]					77.3	
12813 (DNA TCAGTTAGCCAATCCTTCGCTTCAT; sugars from the 5' end llddlddddlddldldlldlddldd, [5mC] at 2, 10, 15, 18, 20, 23, backbone not given here; further chemistry not fully specified) [compound 12813]					81.8	
12814 (DNA GTTGCCATGGAGTTCAAAATCTGTC; sugars from the 5' end dlddlldlddddldlddddllddld, [5mC] at 5, 6, 15, 21, backbone not given here; further chemistry not fully specified) [compound 12814]					78.3	
12815 (DNA AGACGTACAGCATCAGAAATAGCAG; DNA at AG, LNA at CT, all C 5-methyl, backbone not given here; further chemistry not fully specified) [compound 12815]					81.9	
12816 (DNA TTTGGTAGCACGACAAGCTTAGTAT; sugars from the 5' end ldlddlddldlddldddldlddldd, all C 5-methyl, backbone not given here; further chemistry not fully specified) [compound 12816]					79	
12817 (DNA ATAAAGCTGGCAATAGGTCTCTTTT; sugars from the 5' end dlddddllddlddldddllldllld, [5mC] at 7, 11, 19, backbone not given here; further chemistry not fully specified) [compound 12817]					81.2	
12818 (DNA TTTTTCGGCCAAACGATCTTGAATT; sugars from the 5' end ldldllddlldddldddldldddld, all C 5-methyl, backbone not given here; further chemistry not fully specified) [compound 12818]					77.8	
12819 (DNA CACTCTAACAGTTTCGCCGTTTCTA; sugars from the 5' end ldldldddldddldddlddldllld, [5mC] at 1, 3, 5, 9, 17, 23, backbone not given here; further chemistry not fully specified) [compound 12819]					81.9	
12820 (DNA TCAATGGCCTTGCACCATATAATTG; sugars from the 5' end llddlddldlldlddldldlddlld, [5mC] at 2, 8, 13, 16, backbone not given here; further chemistry not fully specified) [compound 12820]					83.5	
12821 (DNA AAAACGACAGCATAAGGCTTTCTTC; sugars from the 5' end ddddlddlddldlddddlldlldld, [5mC] at 5, 8, 11, 18, 22, backbone not given here; further chemistry not fully specified) [compound 12821]					79	
12822 (DNA ATTGACCTCAAAACTTTCTTGGATA; sugars from the 5' end dllddllllddddllldllldddld, all C 5-methyl, backbone not given here; further chemistry not fully specified) [compound 12822]					75.6	
12823 (DNA CCCAACTTTGTGTCGTTTAATAAAA; sugars from the 5' end llldddllddldlddlllddldddd, [5mC] at 1, 2, 3, backbone not given here; further chemistry not fully specified) [compound 12823]					74.8	
(1R,3R,4R,7S)-7-(2-Cyanoethoxy(diisopropylamino)phosphinoxy)-1-(4,4′-dimethoxytrityloxymethyl)-3-(hyroxanthin-9-yl)-dioxabicyclo[2.2.1]heptane [compound 11]						stabilization of the complementary duplex on replacement of one internal LNA-A by LNA-D ([1]; entries 8 and 11): 6.2 °C
